In patent publication US20250353841A1 (BIOGEN MA INC., priority 2022, published 2025) one finds IC50 and mHTT protein levels data, which are given here for nine compounds.

What is called IC50 is the point on the concentration scale where inhibition reaches its midpoint.

Like-named read-outs stand apart in the source and are kept apart here.

Assay [1] concerns mutant Huntington (HTT) protein. Kind of assay: HTT Mutant HTRF iPSC assay (mHTT protein lowering). The note with it: human iPSC derived from a HTT patient with a poly-Q49 mutation. The assay is classed as cell-based. For orientation: In TR-FRET formats the signal depends on donor and acceptor labels being close together.
The subject of assay [2] is mHTT protein. The following applies: HD patient cells; cited from earlier work.
For assay [3], the system named is mHTT protein. The note with it: HD mouse model; cited from earlier work.
Assay [4] deals with mHTT protein. The following applies: blood samples from SMA Type I patients dosed orally; cited from earlier work.

With `Cc1nc2ccc(-c3ccc4nc([C@H]5[C@@H]6CN(C)C[C@@H]65)cn4c3)nn2n1` [Compound 553, 2-methyl-6-(2-((1R,5S,6r)-3-methyl-3-azabicyclo[3.1.0]hexan-6-yl)imidazo[1,2-a]pyridin-6-yl)-[1,2,4]triazolo[1,5-b]pyridazine], in assay [1], the IC50 was in the range of 100 to 1000 nM.

Compound `Cc1cn2nc(-c3ccc4nc([C@H]5[C@@H]6CN(C)C[C@@H]65)cn4c3)cc(C)c2n1` [Compound 554, 2,8-dimethyl-6-(2-((1R,5S,6r)-3-methyl-3-azabicyclo[3.1.0]hexan-6-yl)imidazo[1,2-a]pyridin-6-yl)imidazo[1,2-b]pyridazine] gave an IC50 in assay [1] of 100 to 1000 nM. `Cc1cn2nc(-c3cc(C)c4nc(C5CCNCC5)cn4c3)cc(C)c2n1` [Compound 555, 2,8-dimethyl-6-(8-methyl-2-(piperidin-4-yl)imidazo[1,2-a]pyridin-6-yl)imidazo[1,2-b]pyridazine] had an IC50 in assay [1] of 100 to 1000 nM. Same read-out and setting: with `Cc1cn2nc(-c3cc(Cl)c4nc(C5CCNCC5)cn4c3)cc(C)c2n1` [Compound 556, 6-(8-chloro-2-(piperidin-4-yl)imidazo[1,2-a]pyridin-6-yl)-2,8-dimethylimidazo[1,2-b]pyridazine] the figure was 100 to 1000 nM; with `Cc1cn2nc(-c3ccc4nc(C5CCNCC5)c(F)n4c3)cc(C)c2n1` [Compound 557], less than 100 nM; with `Cc1cn2nc(-c3cc(F)c4nc(C5CCC6(CC5)CC(N)C6)[nH]c4c3)cc(C)c2n1` (centres unmarked) [Compound 559, 7-(6-(2,8-dimethylimidazo[1,2-b]pyridazin-6-yl)-4-fluoro-1H-benzo[d]imidazol-2-yl)spiro[3.5]nonan-2-amine], 100 to 1000 nM. In assay [1], `Cc1nc2ccc(-c3cc(F)c4nn(C5CCNCC5)cc4c3)nn2n1` [Compound 561, 6-(7-fluoro-2-(piperidin-4-yl)-2H-indazol-5-yl)-2-methyl-[1,2,4]triazolo[1,5-b]pyridazine] displayed an IC50 of less than 100 nM. Still for that read-out and setting: the figure for `Cc1nc2ccc(-c3cc(F)c4nc(C5CCNCC5)cn4c3)nn2n1` [Compound 577, 6-(8-fluoro-2-(piperidin-4-yl)imidazo[1,2-a]pyridin-6-yl)-2-methyl-[1,2,4]triazolo[1,5-b]pyridazine] is less than 100 nM. Regarding `CC1(C)CC(Oc2ccc(-c3ccc(-c4cn[nH]c4)cc3O)nn2)CC(C)(C)N1` [branaplam], the mHTT protein levels result in the assay with mHTT protein [2], in the assay on mHTT protein [3] and in the assay on mHTT protein [4] was “lowers mHTT protein levels” each time.
